pIC50: −log10 of the molar value. Where a name gives a salt, the structure may show the parent alone.
tested on: epidermal growth factor receptor (HeLa cells); test: Epidermal growth factor binding inhibition assay: 125I-EGF binding to HeLa cells after treatment with phototherapeutic and UVA; assay type: cell-based, human; conditions: cells pulsed with 2.1 J/cm^2 of ultraviolet light (UVA, 320-400 nm) after treatment, 2 nM 125I-EGF, 2 h at 4° C., read-out: IC50, concentration of each compound inhibiting 125I-EGF binding to HeLa cells by 50%
Description: The primary in vitro screen for the phototherapeutics described herein is based on our discovery that beneficial phototherapeutics inhibit binding in cells of epithelial origin with epidermal growth factor (EGF). Furthermore, the degree of effective competition in this EGF binding assay relates to the phototherapeutic effect of the test agent. [J. Laskin, E. Lee, D. Laskin, M. Gallo, Proc. Nat. Acad. Sci. (U.S.A.) 83:8211 (1986)].
Inhibition of EGF binding is dependent on dose of the phototherapeutic and on the quanta of light in the 320-400 nm wavelength (ultraviolet light A). It is also structure-dependent, that is, there is a direct correlation between those specific phototherapeutics currently used that are clinically active and their ability to inhibit the binding of epidermal growth factor to its receptor.
The ability of the above compounds in the presence of ultraviolet light, to inhibit epidermal growth factor binding to its cell surface receptor is directly related to its phototherapeutic potential. To assay these compounds for this biological activity, human cells (HeLa) grown in vitro were used. Cells (1.8×10^4 /cm^2) were inoculated into 5 cm culture dishes in growth medium consisting of Dulbecco's modified Eagle's medium supplemented with 10% newborn calf serum. After 4-5 days at 37° C. in a humidified CO2 incubator, the cells were washed three times with 2 ml of phosphate buffered saline and then incubated with the different phototherapeutics in 2 ml of Earle's salt solution supplemented with 5.2 mM D-glucose/25 mM Hepes buffer, pH 7.2. Control cultures were incubated in 2 ml of Earle's salt solution in the absence of the test drugs. After 30 minutes, the cells were then exposed to ultraviolet light (UVA, 320-400 nm) emitted from a bank of four BLB fluorescent light tubes (F40BL/Sylvania) placed approximately 10 cm above the cell culture plates. The incident light delivered onto the culture plates was 3.4 mW per cm^2 as measured with an International Light UV-Radiometer and the cells received 2.1 J/cm^2 of UVA light. After this light exposure, the cells were rinsed with phosphate buffered saline and submitted for assay of epidermal growth factor binding. Phototherapeutic treated cells were then incubated for 2 hours at 4° C. with 2 ml of binding buffer (Dulbecco's modified Eagle's medium/25 mM Hepes buffer, pH 7.2) containing 2 nM labeled epidermal growth factor (^125 I-EGF, specific activity 200 Ci/g).
Nonspecific binding was determined by incubating separate plates of cells with buffer containing the radioligand and excess unlabeled epidermal growth factor (1 microgram/ml). The binding reaction of the radioligand to the cells was terminated by aspirating the binding buffer from the culture dishes and washing the cells four times with ice cold phosphate buffered saline. The cells were then solubilized with 2 ml of 0.2M NaOH and duplicate 0.5 ml aliquots were taken for gamma counting. Specific binding of epidermal growth factor to its receptor was calculated by subtracting nonspecifically bound material from the total. Under the conditions of the assay, specific epidermal growth factor receptor binding represented greater than 80% of the total bound to the cells.
As a specific example of this assay, HeLa cells were treated with 4',5'-dihydropsoralen, followed by ultraviolet light exposure and then by measurement for epidermal growth factor binding. The data can be presented as a curve of epidermal growth factor receptor binding to the cells as a percentage of untreated cells. FIG. 1 is an example of 125-I EGF binding inhibition of 4',5'-dihydropsoralen and UVA. The concentration inhibiting epidermal growth factor binding to the cells by 50% (the IC50 value) is determined from the curve.
*IC50, concentration of each compound inhibiting 125I-EGF binding to
**Following treatment of the cells with the phototherapeutic they were
***Highest concentration tested

| pIC50 | SMILES |
| --- | --- |
| 5.30 | Cc1oc2c(C)c3oc(=O)cc(C)c3cc2c1C[N+](C)(C)C [4'-[(N,N,N,-trimethylannonium)methyl]-4,5',8-trimethylpsoralen iodide salt] |
| 5.15 | Cc1cc(=O)oc2c(C)c3c(cc12)CC(C)O3 (stereo not drawn) [4,5',8-trimethyl-4',5'-dihydropsoralen] |
| < 4.00 | O=c1ccc2ccccc2o1 [coumarin, reference compound] |

same assay, conditions: read-out: IC50, concentration of each compound inhibiting 125I-EGF binding to HeLa cells by 50%, cells pulsed with 2.1 J/cm^2 of ultraviolet light (UVA, 320-400 nm) after treatment, 2 nM 125I-EGF, 2 h at 4° C.

| SMILES | pIC50 |
| --- | --- |
| CCOC(=O)c1cc2cc3c(cc2oc1=O)OCC3 [3-carboethoxy-4',5'-dihydropsoralen] | 5.31 |
| Cc1c([N+](=O)[O-])c(=O)oc2c(C)c3c(cc12)CC(C)O3 (stereo not drawn) [3-nitro-4,5',8-trimethyl-4',5'-dihydropsoralen] | 4.62 |
| O=c1ccc2cc3c(cc2o1)OCC3 [4',5'-dihydropsoralen] | 4.96 |
| Cc1cc(=O)oc2c(C)c3oc(CBr)c(Br)c3cc12 [4'-Bromo-5'-bromomethyl-4,8-dimethylpsoralen] | 5.44 |
| Cc1cc2cc3c(C)cc(=O)oc3c(C)c2o1 [4,5',8-trimethylpsoralen, reference compound] | 5.18 |
| Cc1cc(=O)oc2c(C)c3oc(C[n+]4ccccc4)cc3cc12 [5'-[(N-Pyridinium)methyl]-4,8-dimethylpsoralen Bromide Salt] | 6.13 |
| Cc1cc(=O)oc2c(C)c3oc(CBr)cc3cc12 [5'-bromomethyl-4,8-dinethylpsoralen, 5'-Bromomethyl-4,8-dimethylpsoralen] | 5.82 |
| COc1c2c(cc3oc(=O)ccc13)OCC2 [5-methoxy-4',5'-dihydropsoralen] | 5.55 |
| COc1c2ccoc2cc2oc(=O)ccc12 [5-methoxypsoralen (5-MOP), 5-methoxypsoralen, reference compound] | 5.80 |

From patent publication US5473083A, “Reduced and quaternized psoralens as photo-activated therapeutics” (Lehigh University, priority 1994, dated 1995)
